Here are results for two molecules from US20040253256A1, “Biological compositions and methods for treatment of prostate cancer” (priority 2003, published 2004).

For data set [1], the system named is human prostate cancer. The note with it: 31st day from tumor inoculation; 30 consecutive days; AY/NY 0.3 ml oral once per day, CTX 30 mg/kg/day s.c. The text has this:
(§1) The animals used to generate the prostate cancer cells for the experiments were male nude mouse (obtainable from the Chinese Academy of Military Medical Sciences, Beijing, China) with an average weight of about 15 to 18 gram. Fresh prostate tumor cells (obtainable from the Cancer Institute, Chinese Academy of Medical Sciences, Beijing, China) were divided into sections of size 1-2 mm^3 and immediately stored in […] suspension after removal from the human patient.
The mouse were starved for 24 hours before the surgery. The animals were generally anaesthetized. The barbiturates was first diluted in saline and then injected at 0.3 to 0.4 ml per animal, or 30 mg per kg body weight, into the abdomen of the mice. Under sterile conditions, a 1 cm long opening in the body cavity was cut along the right rib of the mice for engraftment of the tumor. About 10^6 units of tumor cells (about 2 mg tumor pieces per ml culture medium) were transplanted. Afterwards, the opening was sutured and the mice were put back into the cage. The animals were allowed to grow for three to five weeks or when the tumor grows to about 1 to 2 cm^3 in size. […]
The mice received the biological compositions, untreated yeast cells, CTX or saline on the same day as the tumor cells were transplanted. […] The weight of the mice and the weight of the tumor were determined by standard techniques.

The test system of data set [2] is human prostate cancer. The note with it: for Number of live animals remaining in the groups after 30 days of treatment: 30 mice per group, 2CTX 45 mg/kg/day s.c.
Description: as §1
The mouse were starved for 24 hours before the surgery. The animals were generally anaesthetized. The barbiturates was first diluted in saline and then injected at 0.3 to 0.4 ml per animal, or 30 mg per kg body weight, into the abdomen of the mice. Under sterile conditions, a 1 cm long opening in the body cavity was cut along the right rib of the mice for engraftment of the tumor. About 10^6 units of tumor cells (about 2 mg tumor pieces per ml culture medium) were transplanted. Afterwards, the opening was sutured and the mice were put back into the cage. The animals were allowed to grow for three to five weeks or when the tumor grows to about 1 to 2 cm^3 in size. […] The tumor was removed from a donor rat and minced aseptically in 4 ml of Hank's solution to form a cell suspension. About 10^6 units of tumor cells (about 0.2 ml cell suspension) were transplanted into a healthy batch of nude mice.
The survival time of mice after tumor injection and treatment was studied.
The biological composition comprising 10^8 cells per ml of activated and conditioned yeast cells of the strain Saccharomyces carlsbergensis Hansen strain AS2.440 was prepared by the methods described in Section 5.1 and subsections therein
The animals were prepared in a similar manner as described in Section 6.1.
The mice injected with tumor cells were kept for 2 weeks and then were divided into 4 experimental groups of ten mice per group and one control group. The four experimental groups were triplicated (i.e., using a total of 120 mice in the experimental groups). In group 2AY, the mice received 0.5 ml of the biological composition once per day. In group 2NY, the mice received 0.5 ml of the untreated yeast cells once per day. In group 2CTX, the mice were injected subcutaneously with 45 mg of cyclophosphamide (CTX) per kg body weight per day. In group 2CK1, the mice received 0.5 ml of physiological saline once per day.
The mice received the biological compositions, untreated yeast cells, CTX or saline on the same day as the tumor cells were transplanted. The mice in group 2CK2 also started receiving saline on the same day as the other four groups. The biological compositions, untreated yeast cells and saline were administered orally by a feeding tube and the CTX by subcutaneous injection for 30 consecutive days. The mice were observed over 6 months from the day of tumor inoculation and survival was recorded. The weight of the mice and the weight of the tumor were determined by standard techniques.

For data set [3], the system named is human prostate cancer. Description: Example 6: tumor growth in nude mouse model of human prostate cancer (thiotepa comparator). Type of data set: in vivo. Conditions: 31st day from tumor inoculation; 30 consecutive days; AY/NY 0.3 ml oral once per day, TSPA 1.5 mg/kg/day i.v. The procedure:
The human prostate cancer sample was carefully selected before, during, and after surgery in order to ensure transplant occurred at the equivalent position in the mouse. The prostate cancer sample was obtained from patients who have not received any radiation, chemotherapy, or immune enhancement treatment.
(§2) The animals were generally anaesthetized.
In group TSPA, the mice were injected intravenously with 1.5 mg of thiotepa (TSPA) per kg body weight per day.

In data set [4] the test system is human prostate cancer. In words: Example 7: survival time in nude mouse model of human prostate cancer (thiotepa comparator). It counts as in vivo. Conditions: for Number of live animals remaining in the groups after 30 days of treatment: 30 mice per group. The procedure: as §2
In group 2TSPA, the mice were injected intravenously with 2.2 mg of thiotepa (TSPA) per kg body weight per day.

[5] abbreviates: mice that survived the 6 months observation, 2AY/2NY 0.5 ml oral daily, 2TSPA 2.2 mg/kg/day i.v., 30 days.
The mark [6] stands for this setting: mice that survived the 6 months observation, 2AY/2NY 0.5 ml oral daily, CTX 45 mg/kg/day s.c., 30 days.

Read-outs that look alike come from different tables or passages of the source.

Consider `O=P1(N(CCCl)CCCl)NCCCO1` (stereo not drawn) [CTX, cyclophosphamide], for which the “mean weight of mice and standard deviation” value in the data set with human prostate cancer [1] came to 16.7 ± 1.7 g. Also, the “mean weight of tumor nodules and standard deviation” value in the data set on human prostate cancer [1] is on record as 3.3 ± 1.7 g. The “Number of live animals remaining in the groups after 30 days of treatment” value (from here on “Number of live animals remaining”) is 30 in the data set with human prostate cancer [2] (0 month after cessation of treatment, 2AY/2NY 0.5 ml oral daily); 30 in the data set with human prostate cancer [2] (1 month after cessation of treatment, 2AY/2NY 0.5 ml oral daily); 30 in the data set on human prostate cancer [2] (2 months after cessation of treatment, 2AY/2NY 0.5 ml oral daily); 27 in the data set with human prostate cancer [2] (3 months after cessation of treatment, 2AY/2NY 0.5 ml oral daily); 22 in the data set on human prostate cancer [2] (4 months after cessation of treatment, 2AY/2NY 0.5 ml oral daily); 17 with human prostate cancer [2] (5 months after cessation of treatment, 2AY/2NY 0.5 ml oral daily). For the same molecule, the “Number of live animals remaining” value in the data set on human prostate cancer [2] (6 months after cessation of treatment, 2AY/2NY 0.5 ml oral daily) is reported as 0. Moreover, the “survival after six months from injection of tumor cells” value in the data set with human prostate cancer [2] (2NY 0.5 ml per day, 2CTX 45 mg/kg per day, 30 days) is reported as “all died”.

`S=P(N1CC1)(N1CC1)N1CC1` [TSPA, thiotepa]: the entries for the “mean weight of mice and standard deviation” value with human prostate cancer [3], in the data set on human prostate cancer [4] (setting [5]) and in the data set with human prostate cancer [2] (setting [6]) were 16.2 ± 1.7 g, “all animals dead” and “all animals dead”, respectively. For the same molecule, the results for the “mean weight of tumor nodules and standard deviation” value with human prostate cancer [3], with human prostate cancer [4] (setting [5]) and with human prostate cancer [2] (setting [6]) were 2.4 ± 1.2 mg, “all animals dead” and “all animals dead”, respectively. The “Number of live animals remaining” value was 30 in the data set on human prostate cancer [4] (0 month after cessation of treatment, 2AY/2NY 0.5 ml oral daily, 2TSPA 2.2 mg/kg/day i.v.); 30 in the data set with human prostate cancer [4] (1 month after cessation of treatment, 2AY/2NY 0.5 ml oral daily, 2TSPA 2.2 mg/kg/day i.v.); 30 with human prostate cancer [4] (2 months after cessation of treatment, 2AY/2NY 0.5 ml oral daily, 2TSPA 2.2 mg/kg/day i.v.); 27 with human prostate cancer [4] (3 months after cessation of treatment, 2AY/2NY 0.5 ml oral daily, 2TSPA 2.2 mg/kg/day i.v.); 17 in the data set on human prostate cancer [4] (4 months after cessation of treatment, 2AY/2NY 0.5 ml oral daily, 2TSPA 2.2 mg/kg/day i.v.); 5 in the data set with human prostate cancer [4] (5 months after cessation of treatment, 2AY/2NY 0.5 ml oral daily, 2TSPA 2.2 mg/kg/day i.v.). Besides, in the data set on human prostate cancer [4] (6 months after cessation of treatment, 2AY/2NY 0.5 ml oral daily, 2TSPA 2.2 mg/kg/day i.v.), the “Number of live animals remaining” value is recorded as 0. Also, in the data set on human prostate cancer [4] (2NY 0.5 ml per day, 2TSPA 2.2 mg/kg per day, 30 days), the “survival after six months from injection of tumor cells” value was “all died”.
